The source of these data is ChEMBL document CHEMBL1140734, “Identification of novel, water-soluble, 2-amino-N-pyrimidin-4-yl acetamides as A2A receptor antagonists with in vivo efficacy” (J Med Chem, 2008).

As a reminder, the Ki is the equilibrium dissociation constant of an inhibitor or competing ligand from its target. A high value points to a looser hold on the target. For orientation: CLint scaled means a measure of how fast metabolising enzymes remove a compound, apart from limits set by blood flow. In general, solubility refers to the dissolved amount per volume that the medium holds. What is called logD is the decadic logarithm of the distribution of all forms, ionised or not, between an organic phase and buffer at a given pH. A lower logD goes with a more hydrophilic compound. As a reminder, the pKa is the negative logarithm of the acid dissociation constant. Low values mean a stronger acid or weaker base, high ones a weaker acid or stronger base. What is called bioavailability is dose-corrected exposure relative to a reference, in per cent. Low values mean poor availability, high ones good availability. In general, AUC refers to the area under the concentration-time curve, a measure of exposure. High values mean high exposure, low ones low exposure.

Values after ≈ are worked out from the molar mass of the structure shown.

One series is filed under the species Homo sapiens. The series can be described thus: Selectivity for human adenosine A2A receptor over human adenosine A1 receptor.
The target in series [1] is Adenosine receptor A2a (Homo sapiens, UniProt P29274). As to the kind of experiment: biochemical.
Description: Displacement of [3H]ZM-241385 from human recombinant adenosine A2A receptor expressed in HEK293 cells
The next series deals with T1, Adenosine receptor A1 (Homo sapiens, UniProt P30542).
T1 sequence (P30542 whole entry): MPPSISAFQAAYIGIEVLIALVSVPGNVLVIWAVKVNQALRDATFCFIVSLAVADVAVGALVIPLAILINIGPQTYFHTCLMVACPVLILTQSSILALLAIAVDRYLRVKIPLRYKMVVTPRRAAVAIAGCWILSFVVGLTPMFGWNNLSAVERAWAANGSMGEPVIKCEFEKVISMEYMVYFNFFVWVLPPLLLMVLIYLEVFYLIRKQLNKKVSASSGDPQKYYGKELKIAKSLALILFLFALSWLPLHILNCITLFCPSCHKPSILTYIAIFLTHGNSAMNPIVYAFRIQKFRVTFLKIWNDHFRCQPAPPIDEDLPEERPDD
As to the kind of experiment: biochemical.

Series [2] can be described thus: Metabolic stability assessed as intrinsic clearance in human liver microsomes. Type of series: ADME, Microsome. (Liver microsomes are vesicles of endoplasmic reticulum, rich in cytochrome P450 enzymes.)
The nature of series [3]: Solubility in water. Type of series: physicochemical.
A short description of series [4]: Lipophilicity, log D of the compound. The class given is physicochemical. The settings on record: octanol/water.
The nature of series [5]: Dissociation constant, pKa of the compound. The class given is physicochemical.
The nature of series [6]: Oral bioavailability in rat at 10 mg/kg. Type of series: ADME, organism-based. Conditions: in vivo.
Series [7] can be described thus: AUC in rat at 10 mg/kg, po. The settings on record: plasma. Further details: dose 10 mg/kg, route oral. Type of series: ADME, organism-based.
For the next series, the target named is T2, Adenosine receptor A2b (Homo sapiens, UniProt P29275).
T2 sequence (P29275 whole entry): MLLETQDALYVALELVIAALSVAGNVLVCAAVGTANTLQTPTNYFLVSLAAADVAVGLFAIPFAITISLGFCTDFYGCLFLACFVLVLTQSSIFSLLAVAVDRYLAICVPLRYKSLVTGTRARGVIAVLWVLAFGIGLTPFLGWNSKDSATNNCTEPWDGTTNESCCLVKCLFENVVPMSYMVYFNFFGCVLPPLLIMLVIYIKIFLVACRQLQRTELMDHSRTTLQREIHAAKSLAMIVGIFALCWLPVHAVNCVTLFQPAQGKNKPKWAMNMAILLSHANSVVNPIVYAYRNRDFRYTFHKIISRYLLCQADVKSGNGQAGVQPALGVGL
As to the kind of experiment: Displacement of [3H]MRS1754 from human adenosine A2B receptor. A general note: Loss of bound radioactivity is the signal in a displacement assay; it reports binding, not function.

The target of the next series is T3, Adenosine receptor A3 (Homo sapiens, UniProt P0DMS8).
T3 sequence (P0DMS8 whole entry): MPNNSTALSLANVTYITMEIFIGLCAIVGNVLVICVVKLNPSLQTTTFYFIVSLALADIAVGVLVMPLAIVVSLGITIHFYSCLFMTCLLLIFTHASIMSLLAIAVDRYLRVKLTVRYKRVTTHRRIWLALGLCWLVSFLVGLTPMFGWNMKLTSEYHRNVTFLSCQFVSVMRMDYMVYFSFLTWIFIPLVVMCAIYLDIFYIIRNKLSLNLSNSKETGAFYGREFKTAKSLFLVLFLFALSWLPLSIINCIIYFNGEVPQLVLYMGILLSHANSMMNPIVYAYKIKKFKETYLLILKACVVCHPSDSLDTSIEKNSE
As to the kind of experiment: Displacement of [125I]AB-MECA from human adenosine A3 receptor.

Series [8] is described as follows: Drug level in rat brain at 10 mg/kg, po after 2 hrs. Type of series: ADME, organism-based. Further details: dose 10 mg/kg, route oral. Conditions: read-out: Drug uptake.
In series [9] the target is Adenosine receptor A2a (Rattus norvegicus, UniProt P30543). As to the kind of experiment: biochemical.
Description: Displacement of [3H]ZM241385 from rat recombinant adenosine A2A receptor expressed in CHO cells
A short description of series [10]: Solubility in PBS at pH 7.4. The class given is physicochemical.

Sequence of Adenosine receptor A2a (Homo sapiens, UniProt P29274) (P29274 whole entry): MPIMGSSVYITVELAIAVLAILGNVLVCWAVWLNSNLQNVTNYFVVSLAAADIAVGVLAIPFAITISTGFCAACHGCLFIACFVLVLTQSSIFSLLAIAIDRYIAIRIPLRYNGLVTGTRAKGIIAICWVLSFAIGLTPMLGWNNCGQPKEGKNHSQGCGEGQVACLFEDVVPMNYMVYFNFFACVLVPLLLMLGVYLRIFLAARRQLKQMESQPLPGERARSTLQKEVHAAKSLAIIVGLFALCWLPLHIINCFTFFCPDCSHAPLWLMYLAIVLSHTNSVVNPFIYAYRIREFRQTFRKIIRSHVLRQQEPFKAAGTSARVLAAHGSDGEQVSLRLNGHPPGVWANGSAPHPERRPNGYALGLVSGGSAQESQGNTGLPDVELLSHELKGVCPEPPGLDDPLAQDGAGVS
Sequence of Adenosine receptor A2a (Rattus norvegicus, UniProt P30543) (P30543 whole entry): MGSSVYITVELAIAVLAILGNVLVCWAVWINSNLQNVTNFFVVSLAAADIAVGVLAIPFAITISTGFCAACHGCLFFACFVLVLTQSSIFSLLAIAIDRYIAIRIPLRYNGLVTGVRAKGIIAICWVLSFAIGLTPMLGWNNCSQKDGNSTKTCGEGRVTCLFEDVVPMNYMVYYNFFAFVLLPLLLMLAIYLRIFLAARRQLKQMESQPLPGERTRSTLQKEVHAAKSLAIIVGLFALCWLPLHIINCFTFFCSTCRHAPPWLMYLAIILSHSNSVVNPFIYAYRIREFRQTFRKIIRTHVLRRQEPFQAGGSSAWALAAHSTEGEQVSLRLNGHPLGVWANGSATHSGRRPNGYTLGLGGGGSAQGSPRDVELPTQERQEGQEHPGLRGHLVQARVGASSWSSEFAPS
Description for Adenosine receptor A1: Displacement of [3H]DPCPX from human recombinant adenosine A1 receptor expressed in HEK293 cells

With `O=C(CN1CCOCC1)Nc1cc(-n2cccn2)nc(-c2ccco2)n1`, in the series filed under Homo sapiens, the Ratio Ki came to 39. For the same compound, the Ki at Adenosine receptor A2a [1] came out at 0.0016 µM; at Adenosine receptor A1, 0.063 µM.

For `CN1CCN(CC(=O)Nc2cc(-n3cccn3)nc(-c3ccco3)n2)CC1`, the Ratio Ki in the series filed under Homo sapiens is 99. Besides, in [2], the CLint scaled came out at 6 mL/min/kg. Moreover, the solubility in [3] is above 25000 µg/mL. In series [4], this compound returned a pH-dependent lipophilicity (logD) of 2.2. In series [5], this compound came in with a pKa of 7.9. The same compound showed a bioavailability in series [6] of 79%. The area under the curve (AUC) in [7] is 2870 ng·h/mL. The inhibition constant (Ki) on Adenosine receptor A2b is 0.035 µM; on Adenosine receptor A3, 0.66 µM; on Adenosine receptor A2a [1], 0.0027 µM; on Adenosine receptor A1, 0.266 µM; on Adenosine receptor A2a [9], 0.026 µM. The concentration at 2 h in series [8] stood at 2700 ng/g.

For the compound `CN1CCN(CC(=O)Nc2cc(-c3nccs3)nc(-c3ccco3)n2)CC1`, the Ratio Ki in the series listed under Homo sapiens amounted to 238. Moreover, the concentration at 2 h in series [8] was found to be 3200 ng/g. The results for the Ki at Adenosine receptor A2a [1], at Adenosine receptor A1 and on Adenosine receptor A2a [9] were 0.0009 µM, 0.218 µM and 0.011 µM, respectively.

Take `CN(C)CC(=O)Nc1cc(-n2cccn2)nc(-c2ccco2)n1`: the Ratio Ki in the series filed under Homo sapiens amounted to 5. Further, the results for the inhibitory constant (Ki) at Adenosine receptor A2a [1] and on Adenosine receptor A1 were 0.0052 µM and 0.028 µM, respectively.

`Nc1cc(-n2cccn2)nc(-c2ccco2)n1`: in [10] (PBS, read-out: Solubility), the solubility is 80 µg/mL (≈ 352 µM). Further, the Ratio Ki in the series filed under Homo sapiens is 20. Besides, in series [2], the CLint scaled turned out to be 73 mL/min/kg. The Ki at Adenosine receptor A2a [1] is 0.0029 µM; on Adenosine receptor A1 it was 0.056 µM.

As to `Cc1cc(C)n(-c2cc(NC(=O)CN3CCN(C)CC3)nc(-c3ccco3)n2)n1`, the Ratio Ki in the series listed under Homo sapiens was determined as 864. Further, the concentration at 2 h in [8] came to 600 ng/g. For the same compound, the Ki at Adenosine receptor A2a [1] was 0.002 µM; at Adenosine receptor A1, 1.73 µM; on Adenosine receptor A2a [9], 0.014 µM.

On to `COCCOc1ccc(N2CCN(CCn3ncc4c3nc(N)n3nc(-c5ccco5)nc43)CC2)cc1` [PRELADENANT], for which the solubility in series [10] (buffer) is below 0.01 µg/mL.

For the compound `CC(=O)Nc1cc(-n2cccn2)nc(-c2ccco2)n1`, the Ratio Ki in the series listed under Homo sapiens worked out at 15. Further, the Ki at Adenosine receptor A1 is 0.0092 µM.
